# Measured values reported in publication PMC9948168, “Vanillin-Based Indolin-2-one Derivative Bearing a Pyridyl Moiety as a Promising Anti-Breast Cancer Agent via Anti-Estrogenic Activity” (ACS Omega, 2023).
# Tests used:
# Assay in all cases: NCI-60 one-dose screening
# Assay type in all cases: cell-based
# OVCAR-4 = details: Homo sapiens, OVCAR-4, 10 μM; OVCAR-4, Ovarian Cancer; read-out: GI (%)
# NCI-H23 = details: Homo sapiens, NCI-H23, Non-Small Cell Lung Cancer, read-out: GI (%)
# KM12 = details: Homo sapiens, KM12, Colon Cancer, read-out: GI (%)
# OVCAR-3 = details: Homo sapiens, OVCAR-3, 10 μM; OVCAR-3, Ovarian Cancer; read-out: GI (%)
# M14 = details: Homo sapiens, M14, Melanoma, read-out: GI (%)
# CAKI-1 = details: Homo sapiens, CAKI-1, Renal Cancer, read-out: GI (%)
# TK-10 = details: Homo sapiens, TK-10, Renal Cancer, read-out: GI (%)
# SN12C = details: Homo sapiens, Renal Cancer, read-out: GI (%)
# PC-3 = details: Homo sapiens, PC-3, Prostate Cancer, read-out: GI (%)
# MOLT-4 = details: Homo sapiens, MOLT-4, Leukemias, read-out: GI (%)
# T-47D = details: Homo sapiens, T47D, Breast Cancer, read-out: GI (%)
# MALME-3M = details: Homo sapiens, Melanoma, read-out: GI (%)
# SK-MEL-5 = details: Homo sapiens, SK-MEL-5, Melanoma, read-out: GI (%)
# SF-268 = details: Homo sapiens, SF-268, CNS Cancer, read-out: GI (%)
# SK-MEL-2 = details: Homo sapiens, SK-MEL-2, Melanoma, read-out: GI (%)
# HCC-2998 = details: Homo sapiens, HCC-2998, Colon Cancer, read-out: GI (%)
# RPMI-8226 = details: Homo sapiens, RPMI-8226, Leukemias, read-out: GI (%)
# OVCAR-8 = details: Homo sapiens, OVCAR-8, Ovarian Cancer, read-out: GI (%)
# HCT-15 = details: Homo sapiens, HCT-15, Colon Cancer, read-out: GI (%)
# SR = details: Homo sapiens, Leukemias, read-out: GI (%)
# HOP-92 = details: Homo sapiens, HOP-92, Non-Small Cell Lung Cancer, read-out: GI (%)
# RXF 393 = details: Homo sapiens, RXF 393, Renal Cancer, read-out: GI (%)
# MDA-MB-435 = details: Homo sapiens, MDA-MB-435, Melanoma, read-out: GI (%)
# NCI-H322M = details: Homo sapiens, Non-Small Cell Lung Cancer, read-out: GI (%)
SMILES,inhibition at 10 µM (OVCAR-4),inhibition at 10 µM (NCI-H23),inhibition at 10 µM (KM12),inhibition at 10 µM (M14),inhibition at 10 µM (CAKI-1),inhibition at 10 µM (TK-10),inhibition at 10 µM (SN12C),inhibition at 10 µM (PC-3),inhibition at 10 µM (MOLT-4),inhibition at 10 µM (T-47D),inhibition at 10 µM (MALME-3M),inhibition at 10 µM (SK-MEL-5),inhibition at 10 µM (SF-268),inhibition at 10 µM (SK-MEL-2),inhibition at 10 µM (HCC-2998),inhibition at 10 µM (RPMI-8226),inhibition at 10 µM (OVCAR-8),inhibition at 10 µM (HCT-15),inhibition at 10 µM (SR),inhibition at 10 µM (HOP-92),also measured
COc1ccc(COc2ccc(/C=C3/C(=O)Nc4ccc(Cl)cc43)cc2OC)cc1 [6i],-0.39%,3.99%,0.58%,0.06%,15.4%,-18.4%,1.92%,11.3%,4.03%,-5.11%,2.07%,0.21%,-0.7%,-5.26%,-4.23%,1.88%,1.18%,3.59%,24.1%,7.13%,inhibition at 10 µM (OVCAR-3): -1.86%; inhibition at 10 µM (RXF 393): -7.98%; inhibition at 10 µM (MDA-MB-435): -5.33%; inhibition at 10 µM (NCI-H322M): 7.01%
COc1cc(/C=C2/C(=O)Nc3cc(Cl)ccc32)ccc1O [5c],25.4%,11.6%,6.51%,21.2%,31.6%,-60.3%,15.2%,21.6%,27.9%,49.2%,8.69%,29.1%,21.8%,7.35%,0.25%,17.9%,13%,34.8%,43.3%,24.8%,inhibition at 10 µM (OVCAR-3): 25.8%; inhibition at 10 µM (RXF 393): 6.84%; inhibition at 10 µM (MDA-MB-435): 17.8%; inhibition at 10 µM (NCI-H322M): 15.7%
COc1cc(/C=C2/C(=O)Nc3ccc(Cl)cc32)ccc1OCc1ccccc1 [6f],-6.85%,1.55%,-0.66%,0.98%,7.2%,-15.1%,3.2%,10%,3.2%,5.17%,-1.28%,1.24%,5.46%,-0.03%,-7.18%,-5.21%,-6.25%,4.2%,-9.47%,6.71%,inhibition at 10 µM (OVCAR-3): -6.72%; inhibition at 10 µM (RXF 393): -11.6%; inhibition at 10 µM (MDA-MB-435): -1.21%; inhibition at 10 µM (NCI-H322M): 2.56%
COc1cc(C=C2C(=O)Nc3ccc(Cl)cc32)ccc1OCc1ccccn1 (mixture of isomers) [6j],8.34%,9.09%,-0.52%,-0.51%,24.4%,-46.6%,3.96%,11.7%,4.33%,9.54%,1.35%,3.73%,1.24%,-9.33%,-6.73%,0.53%,3.83%,22.8%,11.5%,-0.22%,inhibition at 10 µM (OVCAR-3): 7.98%; inhibition at 10 µM (RXF 393): -0.84%; inhibition at 10 µM (MDA-MB-435): -3.49%; inhibition at 10 µM (NCI-H322M): 2.99%
COc1cc(C=C2C(=O)Nc3ccc(Cl)cc32)ccc1O (mixture of isomers) [5b],18.8%,15.6%,7.96%,18.4%,41%,-56.3%,14.6%,13.8%,23.1%,40.9%,3.24%,31.5%,29.1%,6.25%,-1.13%,23.6%,13.8%,25.2%,47.9%,34.6%,inhibition at 10 µM (OVCAR-3): 25.8%; inhibition at 10 µM (RXF 393): -7.81%; inhibition at 10 µM (MDA-MB-435): 19.4%; inhibition at 10 µM (NCI-H322M): 14.1%
COc1cc(C=C2C(=O)Nc3ccccc32)ccc1O (mixture of isomers) [5a],18.2%,16%,9.4%,23.5%,36%,-90.5%,16%,15.6%,10.4%,31.6%,7.51%,17.3%,14.7%,7.03%,-15%,10.8%,15.5%,25.7%,36%,35%,inhibition at 10 µM (OVCAR-3): 19.4%; inhibition at 10 µM (RXF 393): -6.54%; inhibition at 10 µM (MDA-MB-435): 18.5%; inhibition at 10 µM (NCI-H322M): 19.5%
COc1cc(C=C2C(=O)Nc3ccc(Cl)cc32)ccc1OCc1ccc(F)cc1 (mixture of isomers) [6h],74 to 97%,18.8%,-0.4%,3.61%,16.7%,-29%,11.1%,15.8%,23.3%,19.5%,17.7%,10.8%,9.84%,-7.21%,-7.02%,-0.5%,8.78%,13.6%,58.1%,11.7%,inhibition at 10 µM (RXF 393): 6.55%; inhibition at 10 µM (MDA-MB-435): 8.73%; inhibition at 10 µM (NCI-H322M): 10.7%
COc1cc(C=C2C(=O)Nc3ccc(Cl)cc32)ccc1OCc1ccc(Cl)cc1 (mixture of isomers) [6g],74 to 97%,20.2%,3.49%,2.22%,24.2%,-56%,9.18%,22.3%,8.95%,10%,18.7%,8.56%,20%,-8.12%,-4.18%,-3.63%,8.51%,13.9%,41.6%,27.8%,inhibition at 10 µM (OVCAR-3): 74 to 97%; inhibition at 10 µM (RXF 393): 9.18%; inhibition at 10 µM (MDA-MB-435): -1.14%; inhibition at 10 µM (NCI-H322M): 22.9%
